Several values for one entry are separate records, joined by “and”; a condition that tells them apart may be missing. Equal entries are not always repeated. Toxic doses and inconclusive results are not listed. The calls were made as follows: active = survival T/C of 150% or more; inactive = T/C below 125% in these data.
Tested on: P388 leukemia ip, CD2F1 mice, survival T/C
Experiment: NCI In Vivo Anticancer Drug Screen. Data for tumor model P388 Leukemia (intraperitoneal) in CD2F1 (CDF1) mice
Settings: endpoint: median survival time, higher = longer survival
Summary of the method: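 Mice carrying the transplanted tumor received test compound or vehicle. Survival was recorded in each group, and the value is the treated-group measurement divided by that of the vehicle-treated control group.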

[1] = dose: 12.5 mg/kg/injection, schedule: Q01DX005 (ip), vehicle: saline with Tween-80
[2] = dose: 25.0 mg/kg/injection, schedule: Q01DX005 (ip), vehicle: saline with Tween-80
[3] = dose: 50.0 mg/kg/injection, schedule: Q01DX005 (ip), vehicle: saline with Tween-80
[4] = dose: 60.0 mg/kg/injection, schedule: Q01DX005 (ip), vehicle: saline with Tween-80
[5] = dose: 120.0 mg/kg/injection, schedule: Q01DX005 (ip), vehicle: saline with Tween-80
[6] = dose: 240.0 mg/kg/injection, schedule: Q01DX005 (ip), vehicle: saline with Tween-80
[7] = dose: 12.5 mg/kg/injection, schedule: Q01DX009 (ip), vehicle: saline
[8] = dose: 25.0 mg/kg/injection, schedule: Q01DX009 (ip), vehicle: saline

Measured: T/C

CC1(C)N=C(N)N=C(N)N1c1ccc(CCCCc2ccc(S(=O)(=O)F)cc2Cl)c(Cl)c1
inactive: dose: 0.13 mg/kg/injection, schedule: Q03HX016 (ip), vehicle: other 107 % of control | dose: 0.25 mg/kg/injection, schedule: Q03HX016 (ip), vehicle: other 116 % of control | dose: 0.5 mg/kg/injection, schedule: Q03HX016 (ip), vehicle: other 124 % of control | dose: 1.0 mg/kg/injection, schedule: Q01DX005 (ip), vehicle: other 111 % of control | dose: 2.0 mg/kg/injection, schedule: Q01DX005 (ip), vehicle: other 120 % of control | dose: 2.0 mg/kg/injection, schedule: Q04DX002 (ip), vehicle: other 109 % of control | dose: 4.0 mg/kg/injection, schedule: Q01DX005 (ip), vehicle: other 121 % of control | dose: 4.0 mg/kg/injection, schedule: Q04DX002 (ip), vehicle: other 118 % of control | dose: 8.0 mg/kg/injection, schedule: Q01DX005 (ip), vehicle: other 119 % of control | dose: 8.0 mg/kg/injection, schedule: Q04DX002 (ip), vehicle: other 116 % of control | dose: 16.0 mg/kg/injection, schedule: Q01DX005 (ip), vehicle: other 118 % of control | dose: 16.0 mg/kg/injection, schedule: Q04DX002 (ip), vehicle: other 106 % of control | dose: 16.8 mg/kg/injection, schedule: Q01DX009 (ip), vehicle: other 100 % of control | dose: 25.0 mg/kg/injection, schedule: Q01DX009 (oral), vehicle: saline with Tween-80 102 % of control | dose: 32.0 mg/kg/injection, schedule: Q04DX002 (ip), vehicle: other 111 % of control | dose: 50.0 mg/kg/injection, schedule: Q01DX009 (ip), vehicle: Klucel (hydroxypropylcellulose) (HPC) 87 % of control | dose: 50.0 mg/kg/injection, schedule: Q01DX009 (oral), vehicle: saline with Tween-80 102 % of control | dose: 100.0 mg/kg/injection, schedule: Q01DX009 (oral), vehicle: saline with Tween-80 107 % of control | dose: 110.0 mg/kg/injection, schedule: Q01DX009 (ip), vehicle: saline with Tween-80 86 % of control | dose: 200.0 mg/kg/injection, schedule: Q01DX009 (oral), vehicle: saline with Tween-80 105 % of control | dose: 400.0 mg/kg/injection, schedule: Q01DX009 (oral), vehicle: saline with Tween-80 99 % of control
active: dose: 1.98 mg/kg/injection, schedule: Q01DX009 (ip), vehicle: saline with Tween-80 165 % of control | dose: 2.82 mg/kg/injection, schedule: Q01DX009 (ip), vehicle: saline with Tween-80 168 % of control | dose: 3.89 mg/kg/injection, schedule: Q01DX009 (ip), vehicle: Klucel (hydroxypropylcellulose) (HPC) 152 % of control and 163 % of control | dose: 4.03 mg/kg/injection, schedule: Q01DX009 (ip), vehicle: saline with Tween-80 176 % of control | dose: 5.76 mg/kg/injection, schedule: Q01DX009 (ip), vehicle: saline with Tween-80 176 % of control | dose: 6.25 mg/kg/injection, schedule: Q01DX009 (ip), vehicle: distilled water + Tween-80 155 % of control | dose: 6.25 mg/kg/injection, schedule: Q01DX009 (ip), vehicle: saline with Tween-80 163 % of control | dose: 6.48 mg/kg/injection, schedule: Q01DX009 (ip), vehicle: Klucel (hydroxypropylcellulose) (HPC) 164 % of control | dose: 8.23 mg/kg/injection, schedule: Q01DX009 (ip), vehicle: saline with Tween-80 197 % of control | dose: 8.64 mg/kg/injection, schedule: Q01DX005 (ip), vehicle: Klucel (hydroxypropylcellulose) (HPC) 156 % of control | dose: 10.8 mg/kg/injection, schedule: Q01DX009 (ip), vehicle: Klucel (hydroxypropylcellulose) (HPC) 166 % of control and 182 % of control | dose: 11.76 mg/kg/injection, schedule: Q01DX009 (ip), vehicle: saline with Tween-80 212 % of control | dose: 12.5 mg/kg/injection, schedule: Q01DX009 (ip), vehicle: distilled water + Tween-80 155 % of control | dose: 16.8 mg/kg/injection, schedule: Q01DX009 (ip), vehicle: saline with Tween-80 250 % of control | dose: 18.0 mg/kg/injection, schedule: Q01DX009 (ip), vehicle: Klucel (hydroxypropylcellulose) (HPC) 163 % of control and 214 % of control | dose: 24.0 mg/kg/injection, schedule: Q01DX005 (ip), vehicle: Klucel (hydroxypropylcellulose) (HPC) 164 % of control | dose: 24.0 mg/kg/injection, schedule: Q01DX009 (ip), vehicle: saline with Tween-80 256 % of control | dose: 25.0 mg/kg/injection, schedule: Q01DX009 (ip), vehicle: distilled water + Tween-80 160 % of control | dose: 30.0 mg/kg/injection, schedule: Q01DX009 (ip), vehicle: Klucel (hydroxypropylcellulose) (HPC) 163 % of control and 236 % of control | dose: 34.28 mg/kg/injection, schedule: Q01DX009 (ip), vehicle: saline with Tween-80 228 % of control | dose: 40.0 mg/kg/injection, schedule: Q01DX005 (ip), vehicle: Klucel (hydroxypropylcellulose) (HPC) 172 % of control | dose: 75.0 mg/kg/injection, schedule: Q01DX009 (ip), vehicle: saline with Tween-80 195 % of control | dose: 89.0 mg/kg/injection, schedule: Q04DX003 (ip), vehicle: saline with Tween-80 173 % of control | dose: 133.0 mg/kg/injection, schedule: Q04DX003 (ip), vehicle: saline with Tween-80 188 % of control | dose: 200.0 mg/kg/injection, schedule: Q04DX003 (ip), vehicle: saline with Tween-80 307 % of control

CCCOc1cc2c(cc1C(C)c1ccc(OCC)cc1)OCO2 (configuration not stated)
inactive: [1] 100 % of control | [2] 110 % of control | [3] 115 % of control | [4] 105 % of control | [5] 113 % of control

O=C(Nc1ccc(Cl)cc1Cl)c1ccc2c(c1)C(=O)OC2=O
inactive: [4] 98 % of control | [5] 89 % of control | [6] 86 % of control

Nc1cc(=O)[nH]c(=S)n1-c1ccccn1
inactive: dose: 75.0 mg/kg/injection, schedule: Q01DX001 (ip), vehicle: saline with Tween-80 104 % of control | dose: 150.0 mg/kg/injection, schedule: Q01DX001 (ip), vehicle: saline with Tween-80 100 % of control | dose: 300.0 mg/kg/injection, schedule: Q01DX001 (ip), vehicle: saline with Tween-80 104 % of control

CC[n+]1c(/C=C/c2ccc(N(C)C)cc2)ccc2ccccc21
inactive: dose: 0.19 mg/kg/injection, schedule: Q01DX009 (ip), vehicle: saline 100 % of control | dose: 0.39 mg/kg/injection, schedule: Q01DX009 (ip), vehicle: saline 86 % of control | dose: 0.78 mg/kg/injection, schedule: Q01DX009 (ip), vehicle: saline 114 % of control | dose: 1.56 mg/kg/injection, schedule: Q01DX009 (ip), vehicle: saline 96 % of control

CC(C)CC(C)N(C(=S)S)C(C)CC(C)C.[Zn+2] (configuration not stated)
inactive: [3] 100 % of control | dose: 100.0 mg/kg/injection, schedule: Q01DX005 (ip), vehicle: saline with Tween-80 104 % of control | dose: 200.0 mg/kg/injection, schedule: Q01DX005 (ip), vehicle: saline with Tween-80 100 % of control

CN=C(NC(C)C)c1ccccc1
inactive: [7] 91 % of control | [8] 88 % of control | dose: 50.0 mg/kg/injection, schedule: Q01DX009 (ip), vehicle: saline 104 % of control and 88 % of control

COC(=O)C1CCCN1 (configuration not stated)
inactive: dose: 60.0 mg/kg/injection, schedule: Q01DX005 (ip), vehicle: saline 105 % of control | dose: 120.0 mg/kg/injection, schedule: Q01DX005 (ip), vehicle: saline 111 % of control | dose: 240.0 mg/kg/injection, schedule: Q01DX005 (ip), vehicle: saline 104 % of control

N=C(N)c1ccc(NC(=S)Nc2ccc(C(=N)N)cc2)cc1
inactive: dose: 6.25 mg/kg/injection, schedule: Q01DX009 (ip), vehicle: saline 101 % of control | [7] 99 % of control | [8] 99 % of control

Cc1nc2ncnc(Cl)c2[nH]1
inactive: dose: 50.0 mg/kg/injection, schedule: Q01DX005 (ip), vehicle: saline 99 % of control | dose: 100.0 mg/kg/injection, schedule: Q01DX005 (ip), vehicle: saline 105 % of control | dose: 200.0 mg/kg/injection, schedule: Q01DX005 (ip), vehicle: saline 96 % of control

C=CCOc1ccccc1N/N=C(\Cl)C(=O)OC
inactive: [1] 102 % of control | [2] 108 % of control | [3] 109 % of control and 114 % of control

N#Cc1c(-c2ccc(Cl)cc2)cn2c1[nH]c(=O)c1cc(Br)ccc12
inactive: [4] 99 % of control | [5] 102 % of control | [6] 95 % of control
